This note sets out measurements from patent US7935359B2, “Use of L 2-thiohistidine or one of its derivatives as a depigmenting agent in cosmetics” (LVMH Recherche, priority 2006, dated 2011).

Molecules are shown by their SMILES.

The subject of this assay is melanocytes of separated mammary epidermis. The assay is described as follows: Depigmenting activity on separated epidermis incubated with L-DOPA/active principle solution, optical microscopy and counting of melanin grains. In kind it is cell-based, human. Particulars: for depigmenting activity: separated epidermis, L-DOPA; for grains of melanin counted, Mean: mean of 3 tests. As for the experimental part: In this Example a quantitative comparative test is carried out on a separated epidermis in order to show the depigmenting activity of L-2-thiohistidine compared with various depigmenting agents known in the prior art, especially kojic acid or ergothioneine, and also compared with a control sample comprising DOPA oxidase.
The procedure of this test is similar to that described in Example II of the LVMH RECHERCHE document FR-A-2,867,384 published on 16 Sep. 2005, to which those skilled in the art may usefully refer and which is incorporated by reference.
Frozen mammary epidermis originating from plastic surgery on a person, reference P148AB39, are separated by incubation in 2N NaBr for 1 h 45 min at 37° C. They were fixed in a formalized fixative, buffered, rinsed and brought into contact with a volume/volume mixture of L-DOPA/active principle solution. After incubation, they were rinsed and mounted between slides and cover slips with mounting medium.
The epidermis were observed by optical microscopy with a magnification of 10.
The depigmenting activity which can be seen in FIGS. 1 to 5 was quantified statistically by counting the grains of melanin over a series of 3 tests. The values are shown in the Table below, in which the values obtained for the Student test are specified for ergothioneine versus L-2-thiohistidine and for kojic acid versus L-2-thiohistidine at the same concentration. The Student test is said to be significant if the value obtained is less than 0.05. Conclusions

For the compound `NC(Cc1c[nH]c(=S)[nH]1)C(=O)O` [L-2-thiohistidine, alpha-amino-2,3-dihydro-2-thioxo-1H-imidazole-4-propanoic acid], where the note is “50 μg”, the “grains of melanin counted, Test 1” value was 162; the “grains of melanin counted, Test 2” value is listed as 178; the “grains of melanin counted, Test 3” value is given as 176; the “grains of melanin counted, Mean” value was 172. The compound further showed a depigmenting activity (50 μg/ml) of 60%. In addition, under “150 μg”, the “grains of melanin counted, Test 1” value amounted to 102; the “grains of melanin counted, Test 2” value was 115; the “grains of melanin counted, Test 3” value was found to be 116; the “grains of melanin counted, Mean” value is on record as 111. Further, the “depigmenting activity compared with reference agents (in words)” value (150 μg/ml, versus kojic acid) is “very good depigmenting activity similar to that of the previously known kojic acid”. The same compound registered a depigmenting activity (150 μg/ml) of 75%. For the same compound, the “depigmenting activity compared with reference agents (in words)” value (comparable concentration, versus ergothioneine) is on record as “better depigmenting activity than ergothioneine”.

For `C[N+](C)(C)[C@@H](Cc1c[nH]c(=S)[nH]1)C(=O)[O-]` [ergothioneine, reference compound], for the setting “50 μg”, the “grains of melanin counted, Test 1” value was 194; the “grains of melanin counted, Test 2” value was 210; the “grains of melanin counted, Test 3” value is given as 190; the “grains of melanin counted, Mean” value is given as 198. The same compound registered a depigmenting activity (50 μg/ml) of roughly 45%.

With `O=c1cc(CO)occ1O` [kojic acid, reference compound], for the setting “150 μg”, the “grains of melanin counted, Test 1” value was determined as 124; the “grains of melanin counted, Test 2” value is 137; the “grains of melanin counted, Test 3” value is 138; the “grains of melanin counted, Mean” value was found to be 133. The compound also registered a depigmenting activity (150 μg/ml) of roughly 75%.
